Entries after “also recorded” stand apart in the source; their conditions may differ.
What was measured:
[1] = test system: Normal Human Dermal Fibroblasts (NHDF); assay: TGF-β induced CTGF production on normal human dermal fibroblasts (ELISA); type: cell-based; conditions: 10 ng/mL TGF-β, 48 h
Description: The effect of selected compounds on CTGF production was undertaken in NHDF. Cells were cultured in DMEM (0.5% FBS) with or without 10 ng/mL of TGF-β for 48 h in a humidified atmosphere of 95% air-5% carbon dioxide at 37° C. CTGF production in the culture medium was measured using the CTGF ELISA according to the manufacturer (Prepotech) recommendations. Table 3 represents the effect of selected representative compounds on the inhibition of TGF-βCTGF production in normal human dermal fibroblast (NHDF).

[2] = test system: cyclophosphamide immunosuppressed mice; assay: Chemoprotection in cyclophosphamide immunosuppressed mice; type: in vivo, C57BL/6 mice; conditions: 50 mg/kg oral day -3, -2, -1, cyclophosphamide 250 mg/kg iv day 0; for red bone marrow cell count: day +5 (FIG. 6); for white bone marrow cell count: day +5 (FIG. 7)
Description: Female C57BL/6 mice, 6 to 8 week old, were immunosuppressed by treatment with 250 mg/kg of cyclophosphamide administered intravenously at day 0. To examine the immunoprotective effect of Compound I and Compound II, mice were pre-treated orally at day −3, −2 and −1 with 50 mg/kg of each compound. Mice were sacrificed at day +5 by cardiac puncture and cervical dislocation. Then, a gross pathological observation of the femurs (as a source of bone marrow cells) was recorded. After the sacrifice, tissues were crushed in PBS buffer and cells were counted on a hemacytometer.

[3] = test system: doxorubicin-induced nephrotoxicity mouse model; assay: Renal protection in doxorubicin-induced nephrotoxicity model; type: in vivo, C57BL/6 mice; conditions: for serum albumin: oral prophylactic treatment day -3 to 10, doxorubicin 10 mg/kg iv day 0, day 11 (FIG. 2)
Description: C57BL/6 mice (6 to 10 week old) were treated with compounds prophylacticly from day −3 to day 10. Nephrotoxicity was induced by an intravenous injection of 10 mg/kg of doxorubicin at day 0. Serum albumin was monitored at day 11.

UUO rats = assay: Unilateral Ureteral Obstruction (UUO) rat model; type: in vivo, Sprague-Dawley rats
Description: The effect of treatment with Compound I was studied on the Unilateral Ureteral Obstruction (UUO) model, a model of kidney interstitial fibrosis. Sprague-Dawley rats were used at 6-8 weeks of age and 200-250 g in body weight. Rats were sedated by general anesthesia (isoflurane), then an incision was made in the left side of the back, and the left proximal ureter was exposed and triple-ligated. Sham-operated rats had their ureter exposed but not ligated. Rats were treated by oral gavage from day 1 to 13. Rats were sacrificed on day 14.

[4] = test system: 5/6-nephrectomized (NX) rats; assay: 5/6-nephrectomy model of kidney fibrosis; type: in vivo, Wistar rats
Description: Male 6-week old Wistar rats were subjected to […] (5/6-NX) or sham operations. Under ketamine anesthesia (60 to 100 mg/kg, i.p.), two-thirds of the left kidney was removed on day 0 followed by the right total nephrectomy on day 7. Sham operated rats underwent exposition of the kidneys and removal of the perirenal fat. Animals that underwent the sham operation were given vehicle (saline) and were used as controls. 5/6-NX animals were treated by gastric gavage with the vehicle or Compound I administered daily at 10 and 50 mg/kg, respectively. Animals were treated from day 1 to 132 and were sacrificed at day 133. To evaluate renal function, creatinine clearance was measured at day 21 and every subsequent three weeks. Glomerular filtration rate (GFR) was then calculated. Serum urea, serum creatinine and kidney CTGF along with histological lesion score were also evaluated.

[5] = test system: LPS-stimulated RAW264.7 (macrophage-like) cells; assay: IL-12 production on LPS-stimulated RAW264.7 cells (ELISA); type: cell-based; conditions: in the presence of LPS
Description: The effect of selected compounds on IL-12 production was undertaken in RAW264.7 (macrophage-like) cells. RAW264.7 cells were cultured with 100 ng/mL of LPS in presence or absence of compounds for 21 h in a humidified atmosphere of 95% air-5% carbon dioxide at 37° C. IL-12 concentration in the culture medium was measured using the IL-12 ELISA according to the manufacturer (BD Biosciences) recommendations.

[6] = test system: human proximal tubule epithelial cells (HK-2); assay: TGF-β induced epithelial to mesenchymal transition (EMT), real-time PCR; type: cell-based
Description: Further analysis was undertaken to determine the effect of Compound I on EMT. The effect of Compound I on TGF-β induced EMT was analyzed on human proximal tubule epithelial cells (HK-2). To assess the progression of EMT, the pro-epithelial marker E-cadherin and the mesenchymal/pro-fibrotic markers CTGF and collagen 1 were assayed by quantitative real-time PCR. To examine the prospective efficacy of Compound I in inhibiting TGF-β-induced EMT, we first verified the ability of TGF-β to induce EMT in HK-2 cells.

[7] = oral treatment, mRNA, dose-response
[8] = Compound alone, normal HK-2 cells

For `CCCCCCCCC(Oc1ccc(C(=O)CCC)cc1)C(=O)[O-].[Na+]` (racemic) [Compound IX, Sodium (RS)-2-[4-Butyrylphenoxy]decanoate], the melting point was 262 to 278 °C.
Compound `CCCCCCCC(=O)c1cccc2c1CC(C(=O)O)C2` (racemic) [Compound XXVI, Sodium (RS)-4-Octanoylindane-2-carboxylate] has an inhibition at 100 µM ([1]; 100 μM) of 59%.
Compound `CCCCCCCCC(Oc1ccc(C(=O)CCCCC)cc1)C(=O)[O-].[Na+]` (racemic) [Compound X, Sodium (RS)-2-[4-Hexanoylphenoxy]decanoate] has a melting point of 275 to 280 °C.
With `CCCCCCCC(=O)c1cccc(C(=O)[O-])c1.[Na+]` [Compound II, Sodium 3-Octanoylbenzoate] the “red bone marrow cell count” value [2] was “significant increase in red bone marrow cell count”, the “white bone marrow cell count” value [2] was “increase in white bone marrow cell count” and the serum albumin [3] was “inhibits the decrease of serum albumin”.
In the case of `CCCCCCCCC(Oc1ccc(C(=O)CCCCCCC)cc1)C(=O)[O-].[Na+]` (racemic) [Compound I, Sodium (RS)-2-[4-Octanoylphenoxy]decanoate], the “kidney MCP-1” value (UUO rats; 50 mg/kg (FIG. 19)) is reported as “significantly reduced”, the serum albumin (UUO rats; oral 10 and 50 mg/kg, day 1 to 13 (FIG. 18)) is reported as “prevented” and the “TGF-β expression in the kidney” value (UUO rats; oral treatment, mRNA) is reported as “reduced TGF-β expression”. The “expression of CTGF in the kidney” value (UUO rats; [7]) was “significant dose-response inhibition”, the “expression of collagen 1 in the kidney” value (UUO rats; [7]) was “significant dose-response inhibition” and the “urinary excretion of MCP-1” value ([4]; 10 mg/kg, day 21 to 105 (FIG. 13)) was “markedly reduced; also recorded: significantly decreased (from day 84)”. For the same compound, the proteinuria ([4]; 10 mg/kg, day 63 and day 84 (FIG. 10)) was “reduction of proteinuria; also recorded: reduces proteinuria”, the serum urea ([4]; 10 and 50 mg/kg oral, day 1 to day 132 (FIG. 11)) was “decreased serum urea” and the “GFR expressed as percent of improvement” value ([4]; 10 and 50 mg/kg oral, day 84 and day 105 (FIG. 9)) was “improvement of GFR at day 84 and day 105”. The “GFR expressed as percent of improvement (renal functions)” value ([4]; 10 and 50 mg/kg oral, day 126 (FIG. 9)) was “deteriorated but to a lesser extent than that observed in the non-treated animals”, the serum creatinine ([4]; 10 and 50 mg/kg, day 126 (FIG. 12)) was “decreased serum creatinine” and the “interstitial and glomerular fibrosis/sclerosis (histology)” value ([4]; 10 or 50 mg/kg (FIG. 15)) was “reduction of interstitial and glomerular fibrosis/sclerosis”. The “CTGF expression in the remnant kidney (real-time PCR)” value ([4]; oral 10 mg/kg) was “decreases significantly”, the “TGF-β expression in the remnant kidney (real-time PCR)” value ([4]; oral 10 mg/kg) was “decreases significantly” and the “collagen 1 expression in the remnant kidney (real-time PCR)” value ([4]; oral 10 mg/kg) was “decreases significantly”. For the same compound, the “α-SMA expression in the remnant kidney (real-time PCR)” value ([4]; oral 10 mg/kg) was “decreases significantly”, the “kidney CTGF expression (Northern blot)” value ([4]; oral 10 mg/kg (FIG. 16)) was “reduction of connective tissue growth factor (CTGF) expression” and the “need for Ringer's lactate solution over the period of treatment” value ([4]; oral 50 mg/kg) was “did not require Ringer's lactate solution”. For the same compound, the survival rate ([4]; oral 10 and 50 mg/kg (FIG. 17)) was “increases the survival rate”, the “kidney IL-12p40 level” value ([4]; oral 10 or 50 mg/kg, relative to untreated 5/6-NX group (FIG. 14)) was “significant (p=0.04 at 10 mg/kg) increase in IL-12p40” and the GFR ([4]; oral, day 126, p=0.08 (FIG. 8)) was “improvement of GFR”. The “IL-12 production under inflammatory conditions” value [5] was “increases IL-12 production in vitro (RAW.264 cells) only when inflammation is present”, the “basal expression of CTGF” value [6, 8] was “downregulate basal expression” and the “basal expression of collagen 1” value [6, 8] was “downregulate basal expression”. For the same compound, the E-cadherin transcript expression ([6]; TGF-β induced EMT cells (FIG. 20)) was “upregulation of E-cadherin”, the CTGF transcript expression ([6]; TGF-β induced EMT cells (FIG. 21)) was “downregulation” and the “collagen 1 transcript expression” value ([6]; TGF-β induced EMT cells (FIG. 22)) was “downregulation”. For the same compound, the inhibition at 7.5 µM ([1]; 7.5 μM) was 41%, the “red bone marrow cell count” value [2] was “significant increase in red bone marrow cell count” and the “white bone marrow cell count” value [2] was “increase in white bone marrow cell count”. For the same compound, the “histological micrographs of doxorubicin-induced lesions” value ([3]; FIG. 4) was “protects the kidney against doxorubicin toxicity”, the serum albumin [3] was “inhibits the decrease of serum albumin” and the “serum CTGF” value ([3]; oral treatment, p<0.01 (FIG. 5)) was “significant inhibition of CTGF production in serum”. The “histological kidney lesions score” value ([3]; prophylactic treatment, day 11, glomerular and tubular level (FIG. 3)) was “reduces the kidney lesions at the glomerular and tubular level”.
Work on `CCCCCCCC(=O)c1ccc2c(c1)CC(C(=O)O)C2` (racemic) [Compound III, Sodium (RS)-5-Octanoylindane-2-carboxylate] yielded an inhibition at 62.5 µM ([1]; 62.5 μM) of 45%.
Compound `CCCCCCCC(=O)c1ccc(OC(CCCCCC)C(=O)[O-])cc1.[Na+]` (racemic) [Compound VIII, Sodium (RS)-2-[4-Octanoylphenoxy]octanoate] has a melting point of 165 to 170 °C.
